Assay results from patent publication US9023814B2, “Glycomimetic compounds as anti-infectious against pathogens lectins” (priority 2010, dated 2015).

Tests used:
LecA [1] = target: T1, LecA (Pseudomonas aeruginosa, UniProt Q05097); assay: biochemical; format: binding
Protocol: Isothermal Titration Microcalorimetry (ITC).
The method allows for a direct measurement of the affinity between the glycomimetics and the LecA lectin. The dissociation constant is measured.
More particularly, recombinant lyophilized LecA was dissolved in buffer (0.1 M TrisHCl, 6 μM CaCl2, pH 7.5) and degassed (see Supp. Info. for concentration details). Protein concentration was checked by measurement of optical density using a theoretical molar extinction coefficient of 28000. Carbohydrate ligands were dissolved directly into the same buffer, degassed, and placed in the injection syringe. ITC was performed with a VP-ITC MicroCalorimeter from MicroCal Incorporated. PA-IL was placed into the 1.4478-mL sample cell, at 25° C. Titration was performed with 10-μL injections of carbohydrate ligands every 300 s. Data were fitted with MicroCal Origin 7 software, according to standard procedures. Fitted data yielded the stoichiometry (n), the association constant (Ka) and the enthalpy of binding (ΔH).
Other thermodynamic parameters (i.e. changes in free energy, ΔG, and entropy, ΔS) were calculated from the equation: ΔG=ΔH TΔS=−RT Inka where T is the absolute temperature and R=8.314 J·mol^−1·K^−1. Two or three independent titrations were performed for each ligand tested.

P. aeruginosa = assay: Mice model of lung infection, alveolar capillary barrier permeability (125I-albumin); format: in vivo; details: co-instillation into lungs with P. aeruginosa, 6 h after infection
Protocol: Mice were briefly anesthetized with inhaled sevoflurane. For each mouse, 50 l of a bacterial inoculum of 5×10^8 CFU/ml was instilled into the lungs through a gavage inserted into trachea via the oropharynx. The alveolar capillary barrier permeability was evaluated by measuring residual ^125I-albumin instilled intratracheally as an alveolar protein tracer in the lungs and its leakage and accumulation in the plasma aftert 6 h after infection. The intratracheal instillate was a mixture of 1 μCi of ^125I-labeled albumin and 5% bovine albumin together with the P. aeruginosa inoculate and different monosaccharides or glycocompounds. The total radioactivity in the instillate was measured. Fifty microliters of instillate was inoculated into the lungs of each anesthetized mouse. […] The blood was collected by carotid arterial puncture, and a sternotomy was performed to harvest and measure the radioactivity in the lungs, trachea, and stomach. The quantity of 125l-albumin that leaked into the circulation was calculated by multiplying the activity in a blood sample by the volume of blood.
Compound 14 has been compared with two monosaccharides: glucose and galactose, in animal models assays. […] For this, labelled albumin was […] was estimated. […]

LecA [2] = target: T1, LecA; assay: Inhibition of Hemagglutination (HIA), LecA-induced agglutination of rabbit erythrocytes; format: cell-based; details: LecA 6 μg/mL, 25° C.
Protocol: Inhibition of Hemagglutination (IHA) (or Hemagglutination Inhibition Assays (HIA)).
The LecA lectin agglutinates red blood cells since they are covered by glycoconjugates. The glycomimetics inhibit this agglutination.
For each compound the minimum concentration able to perform inhibition has been evaluated. The method is not very quantitative but mimics natural system.
More particularly, hemagglutination inhibition assays were performed in U-shaped 96-well microtitre plates. Rabbit erythrocytes were bought from Biomerieux and used without further washing. The erythrocytes were diluted to a 4% solution in NaCl (150 mM). Lectin solutions of 2 mg/mL were prepared in Tris/HCl 20 mM, NaCl 100 mM and CaCl2 100 μM. The hemagglutination unit (HU) was first obtained by the addition of 25 μL of the 4% erythrocyte solution to 25 μL aliquots of sequential (two-fold) lectin dilutions. The mixture was incubated at 25° C. for 60 minutes. The HU was measured as the minimum lectin concentration required to […] hemagglutination. For the following lectin-inhibition assays, lectin concentrations of four times that of the hemagglutination unit were used, i.e. a concentration of 6 μg/mL for LecA. Subsequent assays were then carried out by the addition of 12.5 μL lectin solution (at the required concentration) to 25 μL of sequential dilutions of glycoclusters, monomer molecules and controls. These solutions were then incubated at 25° C. for 2 h then 12.5 μL of 4% erythrocyte solution was added followed by an additional incubation at 25° C. for 30 minutes. The minimum inhibitory concentration for each molecule was determined by simple eye detection.
Compounds 5, 10, 14, 19, 21, 23, 25, 27, 29 and 31 were evaluated towards LecA according to Method 1.

LecA [3] = target: T1, LecA; assay: biochemical; format: binding; remark: listed apart in the source
Protocol: Surface Plasmon Resonance (SPR).
Equivalent method, but performed in miniaturized channel on a galactose-containing chips in a more sophisticated apparatus (Biacore 3000) that allows for a precise determination of the IC50.
More particularly, SPR inhibition experiments were performed on a Biacore 3000 instrument at 25° C. Measurements were carried out on 2 channels with 2 immobilised sugars: α-L-fucose (channel 1), α-D-galactose (channel 2). Immobilization of sugars was performed at 25° C. using running buffer (HBS) at 5 μL/min. Immobilization on each channel (CM5 Chip) was performed independently as follows. First, channel was activated by injecting a fresh mixture of EDC/NHS (35 μL, 420 s). Then, a solution of strepatavidin (100 μg/mL in Na acetate pH 5 buffer) was injected (50 μL, 600 s). Remaining reactive species were quenched by injecting ethanolamine (1M, 35 μL, 420 s). Finally a solution of the desired biotinylated-polyacrylamide-sugar (Lectinity, 200 μg/mL) was coated onto the surface (50 μL, 600 s) through streptavidin-biotin interaction. This procedure led to 804 RU (fucoside) and 796 RU (galactoside) of immobilized sugars on channel 1 and 2 respectively. Inhibition experiments were performed with the galactosylated channel 2 and plots represent subtracted data (channel 2-channel 1).
LecA was injected using running buffer consisting of HEPES 10 mM, NaCl 150 mM, CaCl2 10 mM, Tween P20 0.005%, pH 7.4. Inhibition studies consisted in the injection (150 μL, 10 μL/min, dissociation: 120 s) of incubated (>1 h, r.t.) mixtures of LecA (5 μM) and various concentrations of inhibitor (2-fold cascade dilutions). For each inhibition assay, LecA (5 μM) without inhibitor was injected to observe the full adhesion of the lectin onto the sugar-coated surface (0% inhibition). The CM5 chip was fully regenerated by successive injections of D-Galactose (2×30 μL, 100 mM in running buffer).
Binding was measured as RU over time after blank subtraction, and data were then evaluated using the BIAevaluation Software, version 4.1. For IC50 evaluation, the response (Req-fitted) was considered as the amount of lectin bound to the sugar surface at equilibrium in the presence of a defined concentration of inhibitor. Inhibition curves were obtained by plotting the percentage of inhibition against the inhibitor concentration (on a logarithmic scale) by using Origin 7.0 software (OriginLab Corp.) and IC50 values were extracted from sigmoidal fit of the inhibition curve.

LecA [4] = target: T1, LecA; assay: Enzyme-Linked Lectin Assay (ELLA), biotinylated LecA binding to polymeric galactose
Protocol: Enzyme-Linked Lectin Assay (ELLA) Experiments 96-well plates are covered with polymer presenting galactose (which is the monosaccharide that is bound by LecA). The lectin labelled with biotin is added in presence of competing glycomimetics. IC50 can be measured.
More particularly, ELLA experiments were conducted using 96-well microtitre plates (Nunc Maxisorb) coated with polymeric β-D-galactose (5 μg/mL; Lectinity Holding, Inc., Moscow) diluted in carbonate buffer, pH 9.6 (100 μL) for 1 h at 37° C. After blocking at 37° C. for 1 h with 100 μL per well of 3% (w/v) BSA in PBS, plates were incubated at 37° C. for 1 h with 100 μL of biotinylated LecA at 0.1 μg/mL in the presence of serial dilutions of inhibitors. After washing with T-PBS (PBS containing 0.05% Tween), 100 μL of streptavidinperoxidase conjugate (dilution 1:10000; Boehringer-Mannheim) was added and left for 1 h at 37° C. The color was developed using 100 μL per well of 0.05 M phosphate/citrate buffer containing O-phenylenediamine dihydrochloride (0.4 mg/mL) and urea hydrogen peroxide (0.4 mg/mL) (Sigma-Aldrich). The reaction was stopped by the addition of 50 μL of 30% H2SO4. Absorbance was read at 490 nm using a microtitre plate reader (Bio-Rad; model 680).

T1 sequence (Q05097 whole entry): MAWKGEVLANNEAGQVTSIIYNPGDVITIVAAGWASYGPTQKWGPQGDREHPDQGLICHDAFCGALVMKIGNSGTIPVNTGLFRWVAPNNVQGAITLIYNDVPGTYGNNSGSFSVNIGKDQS

O=C(Cn1cc(CO)nn1)Nc1ccc(O[C@@H]2O[C@H](CO)[C@H](O)[C@H](O)[C@H]2O)cc1 [Comp. 14, 4-[(1,2,3-Triazol-4-hydroxymethyl-1-yl)-acetamido]phenyl β-D-galactopyranoside]
Kd (LecA [1]): 5.8 µM
reduction of lung damages (alveolar barrier permeability) versus bacteria without sugar (P. aeruginosa): approximately 50%
inhibiting concentrations of lectin-induced red cells agglutination (minimum inhibitory concentration) (LecA [2]): 250 µM
IC50 (LecA [3]): 2.6 µM
IC50 (LecA [4]): 46 µM
